According to patent publication US20150218212A1, “FLUORINATED EPOXYKETONE-BASED TETRAPEPTIDE COMPOUNDS AND USES THEREOF AS PROTEASOME INHIBITORS” (FLUORINOV PHARMA INC., priority 2012, published 2015):

How the values were obtained:
Type in all cases: cell-based, human
MOLT-4 = test: NCI screening panel, MOLT-4 (Leukemia)
Experimental: (§1) Representative compounds of Formula I were screened using the National Cancer Institute (NCI) screening panel, which consists of a panel of human tumor cell lines, representing leukemia, melanoma, and cancers of the lung, colon, ovary, breast, prostate and renal system.
(§2) After 24 h, two plates of each cell line are fixed in situ with TCA, to represent a measurement of the cell population for each cell line at the time of drug addition (Tz). Experimental drugs are solubilised in dimethyl sulfoxide at 400-fold the desired final maximum test concentration and stored frozen prior to use. At the time of drug addition, an aliquot of frozen concentrate is thawed and diluted to twice the desired final maximum test concentration with complete medium containing 50 μg/mL gentamicin. Additional four, 10-fold or ½ log serial dilutions are made to provide a total of five drug concentrations plus control. Aliquots of 100 μl of these different drug dilutions are added to the appropriate microtiter wells already containing 100 μl of medium, resulting in the required final drug concentrations.
(§3) Following drug addition, the plates are incubated for an additional 48 h at 37° C., 5% CO2, 95% air, and 100% relative humidity. For adherent cells, the assay is terminated by the addition of cold TCA (trichloroacetic acid). Cells are fixed in situ by the gentle addition of 50 μl of cold 50% (w/v) TCA (final concentration, 10% TCA) and incubated for 60 minutes at 4° C. The supernatant is discarded, and the plates are washed five times with tap water and air dried. Sulforhodamine B (SRB) solution (100 μl) at 0.4% (w/v) in 1% acetic acid is added to each well, and plates are incubated for 10 minutes at room temperature. After staining, unbound dye is removed by washing five times with 1% acetic acid and the plates are air dried. Bound stain is subsequently solubilised with 10 mM trizma base, and the absorbance is read on an automated plate reader at a wavelength of 515 nm. For suspension cells, the methodology is the same except that the assay is terminated by fixing settled cells at the bottom of the wells by gently adding 50 μl of 80% TCA (final concentration, 16% TCA). Using the seven absorbance measurements [time zero, (Tz), control growth, (C), and test growth in the presence of drug at the five concentration levels (Ti)], the percentage growth is calculated at each of the drug concentrations levels. Percentage growth inhibition is calculated as: [(Ti−Tz)/(C−Tz)]×100 for concentrations for which Ti>/=Tz and [(Ti−Tz)/Tz]×100 for concentrations for which Ti<Tz.
(§4) Three dose response parameters are calculated for each experimental agent. Growth inhibition of 50% (GI50) is calculated from [(Ti−Tz)/(C−Tz)]×100=50, which is the drug concentration resulting in a 50% reduction in the net protein increase (as measured by SRB staining) in control cells during the drug incubation. The drug concentration resulting in total growth inhibition (TGI) is calculated from Ti=Tz. The LC50 (concentration of drug resulting in a 50% reduction in the measured protein at the end of the drug treatment as compared to that at the beginning) indicating a net loss of cells following treatment is calculated from [(Ti−Tz)/Tz]×100=−50. Values are calculated for each of these three parameters if the level of activity is reached. However, if the effect is not reached or is exceeded, the value for that parameter is expressed as greater or less than the maximum or minimum concentration tested.

SR = test: NCI screening panel, SR (Leukemia)
Experimental: as §1, §2, §3, §4

A549/ATCC = test: NCI screening panel, A549/ATCC (Non-Small Cell Lung Cancer)
Experimental: as §1, §2, §3, §4

NCI-H23 = test: NCI screening panel, NCI-H23 (Non-Small Cell Lung Cancer)
Experimental: as §1, §2, §3, §4

NCI-H322M = test: NCI screening panel, NCI-H322M (Non-Small Cell Lung Cancer)
Experimental: as §1, §2, §3, §4

NCI-H522 = test: NCI screening panel, NCI-H522 (Non-Small Cell Lung Cancer)
Experimental: as §1, §2, §3, §4

HCT-116 = test: NCI screening panel, HCT-116 (Colon Cancer)
Experimental: as §1, §2, §3, §4

HCT-15 = test: NCI screening panel, HCT-15 (Colon Cancer)
Experimental: as §1, §2, §3, §4

HT29 = test: NCI screening panel, HT29 (Colon Cancer)
Experimental: as §1, §2, §3, §4

MALME-3M = test: NCI screening panel, MALME-3M (Melanoma)
Experimental: as §1, §2, §3, §4

M14 = test: NCI screening panel, M14 (Melanoma)
Experimental: as §1, §2, §3, §4

SK-MEL-2 = test: NCI screening panel, SK-MEL-2 (Melanoma)
Experimental: as §1, §2, §3, §4

SK-MEL-28 = test: NCI screening panel, SK-MEL-28 (Melanoma)
Experimental: as §1, §2, §3, §4

SK-MEL-5 = test: NCI screening panel, SK-MEL-5 (Melanoma)
Experimental: as §1, §2, §3, §4

UACC-62 = test: NCI screening panel, UACC-62 (Melanoma)
Experimental: as §1, §2, §3, §4

OVCAR-3 = test: NCI screening panel, OVCAR-3 (Ovarian Cancer)
Experimental: as §1, §2, §3, §4

OVCAR-5 = test: NCI screening panel, OVCAR-5 (Ovarian Cancer)
Experimental: as §1, §2, §3, §4

SN12C = test: NCI screening panel, SN12C (Renal Cancer)
Experimental: as §1, §2, §3, §4

TK-10 = test: NCI screening panel, TK-10 (Renal Cancer)
Experimental: as §1, §2, §3, §4

CC(C)C[C@H](NC(=O)[C@H](COC(F)F)NC(=O)CN1CCOCC1)C(=O)N[C@@H](COC(F)F)C(=O)N[C@@H](CC(C)C)C(=O)[C@@]1(C)CO1 [Example 1, (2S)—N-[(1S)-1-(difluoromethoxymethyl)-2-[[(1S)-3-methyl-1-[(2R)-2-methyloxirane-2-carbonyl]butyl]amino]-2-oxo-ethyl]-2-[[(2S)-3-(difluoromethoxy)-2-[(2-morpholinoacetyl)amino]propanoyl]amino]-4-methyl-pentanamide]
Log10GI50 (MOLT-4): −7.57 | Log10LC50 (MOLT-4): >−4.00 | Log10TGI50 (MOLT-4): −6.98 | Log10GI50 (SR): −7.52 | Log10LC50 (SR): >−4.00 | Log10TGI50 (SR): −4.61 | Log10GI50 (A549/ATCC): −7.46 | Log10LC50 (A549/ATCC): >−4.00 | Log10TGI50 (A549/ATCC): −5.49 | Log10GI50 (NCI-H23): −7.56 | Log10LC50 (NCI-H23): >−4.00 | Log10TGI50 (NCI-H23): −6.68 | Log10GI50 (NCI-H322M): −7.19 | Log10LC50 (NCI-H322M): −4.86 | Log10TGI50 (NCI-H322M): −6.45 | Log10GI50 (NCI-H522): −7.96 | Log10LC50 (NCI-H522): −4.04 | Log10TGI50 (NCI-H522): −7.05 | Log10GI50 (HCT-116): -8.00 | Log10LC50 (HCT-116): −6.33 | Log10TGI50 (HCT-116): −7.34 | Log10GI50 (HCT-15): −5.97 | Log10LC50 (HCT-15): >−4.00 | Log10TGI50 (HCT-15): >−4.00 | Log10GI50 (HT29): −7.77 | Log10LC50 (HT29): >−4.00 | Log10TGI50 (HT29): −4.15 | Log10GI50 (MALME-3M): −7.39 | Log10LC50 (MALME-3M): >−4.00 | Log10TGI50 (MALME-3M): −6.49 | Log10GI50 (M14): −7.25 | Log10LC50 (M14): >−4.00 | Log10TGI50 (M14): −6.31 | Log10GI50 (SK-MEL-2): −7.60 | Log10LC50 (SK-MEL-2): >−4.00 | Log10TGI50 (SK-MEL-2): −7.03 | Log10GI50 (SK-MEL-28): −7.56 | Log10LC50 (SK-MEL-28): >−4.00 | Log10TGI50 (SK-MEL-28): −6.97 | Log10GI50 (SK-MEL-5): −7.55 | Log10LC50 (SK-MEL-5): −6.30 | Log10TGI50 (SK-MEL-5): −6.97 | Log10GI50 (UACC-62): −7.60 | Log10LC50 (UACC-62): >−4.00 | Log10TGI50 (UACC-62): −6.95 | Log10GI50 (OVCAR-3): −7.69 | Log10LC50 (OVCAR-3): −6.91 | Log10TGI50 (OVCAR-3): −7.34 | Log10GI50 (OVCAR-5): −7.39 | Log10LC50 (OVCAR-5): >−4.00 | Log10TGI50 (OVCAR-5): −6.31 | Log10GI50 (SN12C): −7.31 | Log10LC50 (SN12C): −4.88 | Log10TGI50 (SN12C): −6.62 | Log10GI50 (TK-10): −6.53 | Log10LC50 (TK-10): >−4.00 | Log10TGI50 (TK-10): −5.17

CC(C)C[C@H](NC(=O)[C@H](COC(F)F)NC(=O)CN1CCOCC1)C(=O)N[C@@H](Cc1ccccc1)C(=O)N[C@@H](Cc1ccccc1)C(=O)[C@@]1(C)CO1 [Example 3, (2S)-N-[(1S)-1-benzyl-2-[[(1S)-1-benzyl-2-[(2R)-2-methyloxiran-2-yl]-2-oxo-ethyl]amino]-2-oxo-ethyl]-2-[[(2S)-3-(difluoromethoxy)-2-[(2-morpholinoacetyl)-amino]propanoyl]amino]-4-methyl-pentan-amide]
Log10GI50 (MOLT-4): <−8.00 | Log10TGI50 (MOLT-4): >−4.00 | Log10GI50 (SR): <−8.00 | Log10LC50 (SR): >−4.00 | Log10TGI50 (SR): >−4.00 | Log10GI50 (A549/ATCC): −7.65 | Log10LC50 (A549/ATCC): >−4.00 | Log10TGI50 (A549/ATCC): >−4.00 | Log10GI50 (NCI-H23): <−8.00 | Log10LC50 (NCI-H23): −4.33 | Log10TGI50 (NCI-H23): −6.69 | Log10GI50 (NCI-H322M): −7.12 | Log10LC50 (NCI-H322M): −5.14 | Log10TGI50 (NCI-H322M): −6.44 | Log10GI50 (NCI-H522): <−8.00 | Log10LC50 (NCI-H522): −6.18 | Log10TGI50 (NCI-H522): −7.55 | Log10GI50 (HCT-116): <−8.00 | Log10LC50 (HCT-116): >−4.00 | Log10TGI50 (HCT-116): −7.34 | Log10GI50 (HCT-15): −6.51 | Log10LC50 (HCT-15): >−4.00 | Log10TGI50 (HCT-15): >−4.00 | Log10GI50 (HT29): <−8.00 | Log10LC50 (HT29): −4.44 | Log10TGI50 (HT29): −6.25 | Log10GI50 (MALME-3M): −7.65 | Log10LC50 (MALME-3M): >−4.00 | Log10TGI50 (MALME-3M): −7.07 | Log10GI50 (M14): −7.69 | Log10LC50 (M14): >−4.00 | Log10TGI50 (M14): −6.54 | Log10GI50 (SK-MEL-2): −7.92 | Log10LC50 (SK-MEL-2): >−4.00 | Log10TGI50 (SK-MEL-2): −7.19 | Log10GI50 (SK-MEL-28): −7.65 | Log10LC50 (SK-MEL-28): >−4.00 | Log10TGI50 (SK-MEL-28): −6.27 | Log10GI50 (SK-MEL-5): −7.71 | Log10LC50 (SK-MEL-5): −6.43 | Log10TGI50 (SK-MEL-5): −7.19 | Log10GI50 (UACC-62): −7.93 | Log10LC50 (UACC-62): −6.13 | Log10TGI50 (UACC-62): −7.17 | Log10GI50 (OVCAR-3): <−8.00 | Log10LC50 (OVCAR-3): −6.36 | Log10TGI50 (OVCAR-3): −7.25 | Log10GI50 (OVCAR-5): −7.42 | Log10LC50 (OVCAR-5): >−4.00 | Log10TGI50 (OVCAR-5): −5.86 | Log10GI50 (SN12C): −7.68 | Log10LC50 (SN12C): −6.24 | Log10TGI50 (SN12C): −6.85 | Log10GI50 (TK-10): −7.55 | Log10LC50 (TK-10): >−4.00 | Log10TGI50 (TK-10): −5.91
